Structures can show the parent of a compound that is named as a salt.
Assays:
[1] = Binding studies using USP Apparatus I (naloxone to ion exchange polymer); assay type: physicochemical; settings: 1:1 molar naloxone:Amberlite IRP64, 500 mL 0.1 N HCl / 5 mM phosphate buffer pH 6.8
Description: The following experiment was done. • 1. Based on the 1:1 molar ratio of naloxone:Amberlite™ IRP64, take the required quantity of naloxone and Amberlite™ IRP64 blend in a capsule and add it to 500 mL of the medium (0.1 N HCl/5 mM Phosphate buffer, pH 6.8). • 2. Withdraw dissolution samples at 10, 30 and 60 mins. • 3. Centrifuge the samples at 3000 rpm for 10 mins and filter through fritted filter ([…]) to get the supernatant for analysis. The results are illustrated in FIG. 9.

[2] = Dissolution studies using USP Apparatus II, single vs multiple doses; assay type: physicochemical; settings: Type A + Type C granules in capsule, 250 ml medium pH 1.6, 10, 30, 60, 120 minutes

Row | Structure (SMILES) | percentage of naloxone hydrochloride bonded to ion exchange polymer, multiple doses versus single dose [1] | percentage of drug released, multiple doses versus single dose [2]
1 | C=CCN1CC[C@]23c4c5ccc(O)c4O[C@H]2C(=O)CC[C@@]3(O)[C@H]1C5 [naloxone hydrochloride] | drastically increases | –
2 | COc1ccc2c3c1O[C@H]1C(=O)CC[C@@]4(O)[C@@H](C2)N(C)CC[C@]314.Cl [oxycodone hydrochloride] | – | drastically reduced

— patent US10632113B2, “Abuse-resistant drug formulations with built-in overdose protection” (KASHIV BIOSCIENCES, LLC, priority 2014, dated 2020)
